Results reported in patent US8822698B2, “Aminoacid derivatives, their process of preparation and their therapeutical uses as inhibitors of oncogenic signals by the Met family” (Universite D'Aix-Marseille, priority 2009, dated 2014).

What was measured:
GTL-16 cells = experiment: In vivo tumorigenesis, GTL-16 cells injected intra-peritoneally in nude mice
Experimental: Xenografts of GTL-16 cells were established by intraperitoneal (i.p.) or subcutaneously (into the flank/leg region) injection of cells (10^6) in nude mice (S/SOPF SWISS NU/NU; Charles River). Mice were then treated with the compound of example 4 (i.p. 30 mg kg-1) or vehicle every two days (GTL-16 cell intra-peritoneally injected at d=0, treatment started at d=1) or every day (GTL-16 cell intra-peritoneally injected at d=0, treatment started at d=7; GTL-16 cell subcutaneously injected at d=0, treatment started at d=1). Treatments were performed either one day or seven days after cancer cell injection. Mice were then sacrificed, and tumor nodule numbers present in the peritoneal cavity, the measure of their diameter and their total weight was evaluated. Three independent tumorigenesis assays were performed (8 mice per group were used).
We evaluated the ability of compounds of general formula to impair tumour growth in vivo using nude mice injected intra-peritoneally with GTL-16 cells. […] For example, when compounds were administered one day after intraperitoneally injection of GTL-16 cells, the mean numbers of nodules were the following: a) mice trated with vehicle: <1 mm: 3; 1-2 mm: 9.3; 2-5 mm: 11; >5 mm: 3.5. b) mice treated with the compound of example 4: <1 mm: 0.3; 1-2 mm: 1.3; 2-5 mm: 1; >5 mm: 0.8 (FIG. 3). […] Moreover, tumour growth of GTL-16 cells subcutaneously injected was reduced by approximately 35% in mice treated with compounds (data not shown). Taken together, these findings provide evidence that the identified new scaffold interferes with tumour growth in vivo.

SF-268 = experiment: NCI 60 human tumour cell line screen; assay type: cell-based; details: conc. 10^−5M; SF-268, CNS Cancer
Source text: (§1) Compound of example 4 was screened in the NCI 60 human tumour cell line anticancer drug screen (Shoemaker et al Nature reviews 6, 2006, 813-823).

DU-145 = experiment: NCI 60 human tumour cell line screen; assay type: cell-based; details: conc. 10^−5M; DU-145, Prostate Cancer
Source text: as §1

IGROV 1 = experiment: NCI 60 human tumour cell line screen; assay type: cell-based; details: conc. 10^−5M; IGROV 1, Ovarian Cancer
Source text: as §1

NCl-H460 = experiment: NCI 60 human tumour cell line screen; assay type: cell-based; details: conc. 10^−5M; NCl-H460, Non-Small Cell Lung Cancer
Source text: as §1

HCT-15 = experiment: NCI 60 human tumour cell line screen; assay type: cell-based; details: conc. 10^−5M; HCT-15, Colon Cancer
Source text: as §1

SF-539 = experiment: NCI 60 human tumour cell line screen; assay type: cell-based; details: conc. 10^−5M; SF-539, CNS Cancer
Source text: as §1

SR = experiment: NCI 60 human tumour cell line screen; assay type: cell-based; details: conc. 10^−5M, Leukemia
Source text: as §1

A498 = experiment: NCI 60 human tumour cell line screen; assay type: cell-based; details: conc. 10^−5M; A498, Renal Cancer
Source text: as §1

TK-10 = experiment: NCI 60 human tumour cell line screen; assay type: cell-based; details: conc. 10^−5M; TK-10, Renal Cancer
Source text: as §1

HL-60(TB) = experiment: NCI 60 human tumour cell line screen; assay type: cell-based; details: conc. 10^−5M, Leukemia
Source text: as §1

UACC-257 = experiment: NCI 60 human tumour cell line screen; assay type: cell-based; details: conc. 10^−5M; UACC-257, Melanoma
Source text: as §1

MCF7 = experiment: NCI 60 human tumour cell line screen; assay type: cell-based; details: conc. 10^−5M; MCF7, Breast Cancer
Source text: as §1

HCT-116 = experiment: NCI 60 human tumour cell line screen; assay type: cell-based; details: conc. 10^−5M; HCT-116, Colon Cancer
Source text: as §1

HOP-62 = experiment: NCI 60 human tumour cell line screen; assay type: cell-based; details: conc. 10^−5M; HOP-62, Non-Small Cell Lung Cancer
Source text: as §1

786-0 = experiment: NCI 60 human tumour cell line screen; assay type: cell-based; details: conc. 10^−5M; 786-0, Renal Cancer
Source text: as §1

SK-OV-3 = experiment: NCI 60 human tumour cell line screen; assay type: cell-based; details: conc. 10^−5M; SK-OV-3, Ovarian Cancer
Source text: as §1

[1] = i.p. 30 mg kg-1, treatment one day after i.p. injection of GTL-16 cells
[2] = nude mice injected i.p. with GTL-16 cells

`O=C(Cc1cc(C(F)(F)F)cc(C(F)(F)F)c1)N[C@@H](Cc1ccccc1)C(=O)Nc1ccc(-c2cn3c(n2)sc2ccccc23)cc1` [Example 4, (S)-2-(3,5-bis(trifluoromethyl)phenylacetamido)-3-phenyl-N-[4-(imidazo[2,1-b]benzothiazol-2-yl)phenyl]propanamide] was tested, and the “mean number of nodules 1-2 mm” value (GTL-16 cells; [1]) was 1.3, the “mean number of nodules 2-5 mm” value (GTL-16 cells; [1]) was 1 and the “mean number of nodules <1 mm” value (GTL-16 cells; [1]) was 0.3. For the same compound, the “mean number of nodules >5 mm” value (GTL-16 cells; [1]) was 0.8, the number of tumours (GTL-16 cells; [2]) was “drastically reduced” and the “total weight of tumours” value (GTL-16 cells; [2]) was “drastically reduced”. For the same compound, the “Growth Percent” value (SF-268) was 29.28%, the “Growth Percent” value (DU-145) was 70.37% and the “Growth Percent” value (IGROV 1) was 13.32%. The “Growth Percent” value (NCl-H460) was −16.59%, the “Growth Percent” value (HCT-15) was 44.16% and the “Growth Percent” value (SF-539) was 36.76%. The “Growth Percent” value (SR) was 58.33%, the “Growth Percent” value (A498) was 120.10% and the “Growth Percent” value (TK-10) was 61.11%. The “Growth Percent” value (HL-60(TB)) was 79.95%, the “Growth Percent” value (UACC-257) was 55.20% and the “Growth Percent” value (MCF7) was 59.09%. For the same compound, the “Growth Percent” value (HCT-116) was 21.40%, the “Growth Percent” value (HOP-62) was 80.02% and the “Growth Percent” value (786-0) was 60.35%. The “Growth Percent” value (SK-OV-3) was 96.62%.
